The source of these data is PubChem BioAssay (NCI).

Some test systems named below: SN12C renal; MOLT-4 leukemia; SF-539 CNS; OVCAR-3 ovarian; MDA-MB-231 breast; MALME-3M melanoma; OVCAR-5 ovarian; OVCAR-8 ovarian; HOP-62 NSCLC; HOP-92 NSCLC; T-47D breast; M14 melanoma; PC-3 prostate; MDA-N; A498 renal; 786-0 renal; NCI-H522 lung; UO-31 renal; K-562 leukemia.
Holding throughout (experiment): DTP human tumour cell line panel, 48 h

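Method: 48-hour compound exposure of cells in 96-well plates, five concentrations, linear interpolation of endpoints. TGI denotes the concentration required for complete inhibition of growth.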 Some results are limits rather than exact numbers.

As for `CN(C)Cc1cc(C(=O)/C=C/c2ccc(Cl)c(Cl)c2)cc(CN(C)C)c1O`, the TGI – broadly, the concentration at which net growth stops – with SN12C renal was determined as 7.83 µM; with MOLT-4 leukemia, 10.5 µM; in the test with SF-539 CNS, 8.93 µM; in the test on OVCAR-3 ovarian, 5.46 µM; with MDA-MB-231 breast, 14.3 µM; in the test on MALME-3M melanoma it was 10.4 µM. In addition, the TGI with OVCAR-5 ovarian is 20.9 µM; with OVCAR-8 ovarian, 4.9 µM; with HOP-62 NSCLC, 6.45 µM; with HOP-92 NSCLC, 3.85 µM; with T-47D breast, 19.9 µM; in the test with M14 melanoma, 4.34 µM. Besides, the TGI in the test on PC-3 prostate is 5.32 µM; with MDA-N it was 10.9 µM; with A498 renal, 11.1 µM; with 786-0 renal, 3.09 µM; in the test with NCI-H522 lung it was 3.31 µM; in the test with UO-31 renal, 5.39 µM. The molecule also showed a concentration for total growth inhibition (TGI) with K-562 leukemia of 4.74 µM.

Consider `COC(=O)c1cc(=O)n(-c2ccc3nn(C)nc3c2)cc1C(=O)OC`, for which the TGI with SN12C renal, with MOLT-4 leukemia, with SF-539 CNS, in the test with OVCAR-3 ovarian, in the test with MDA-MB-231 breast and in the test with MALME-3M melanoma was over 100 µM in each case. Besides, the TGI with OVCAR-5 ovarian, with OVCAR-8 ovarian, in the test with HOP-62 NSCLC, in the test with HOP-92 NSCLC, in the test on T-47D breast and with M14 melanoma was over 100 µM each time. The TGI in the test on PC-3 prostate, in the test with MDA-N, in the test on A498 renal, with 786-0 renal, with NCI-H522 lung and in the test with UO-31 renal was over 100 µM in each case. Moreover, the TGI in the test with K-562 leukemia was over 100 µM.

On to `O=C(O)CC(NC(=O)/C(=C/c1ccccc1)NC(=O)c1ccccc1)C(=O)O` (configuration not stated), for which the TGI in the test with SN12C renal, with MOLT-4 leukemia, in the test with SF-539 CNS, in the test with OVCAR-3 ovarian, in the test with MDA-MB-231 breast and with MALME-3M melanoma was over 100 µM throughout. Besides, the TGI with OVCAR-5 ovarian, in the test on OVCAR-8 ovarian, with HOP-62 NSCLC, with HOP-92 NSCLC, in the test on T-47D breast and in the test with M14 melanoma was over 100 µM each time. Besides, the TGI in the test on PC-3 prostate, with MDA-N, with A498 renal, with 786-0 renal, in the test on NCI-H522 lung and with UO-31 renal was over 100 µM in each case. In the test with K-562 leukemia, the TGI is over 100 µM.

Regarding `CCOC(=O)C(NC(C)=O)(Nc1ccc(S(N)(=O)=O)cc1)C(F)(F)F` (configuration not stated), the TGI with SN12C renal, in the test with MOLT-4 leukemia, in the test on SF-539 CNS, in the test with OVCAR-3 ovarian, with MDA-MB-231 breast and with MALME-3M melanoma was over 100 µM each time. In addition, the TGI in the test with OVCAR-5 ovarian, with OVCAR-8 ovarian, in the test with HOP-62 NSCLC, in the test with HOP-92 NSCLC, in the test with T-47D breast and in the test with M14 melanoma was over 100 µM throughout. Moreover, the TGI in the test with PC-3 prostate, in the test with MDA-N, in the test with A498 renal, with 786-0 renal, with NCI-H522 lung and with UO-31 renal was over 100 µM each time. Besides, the TGI with K-562 leukemia was over 100 µM.

Take `O=C1/C(=C/c2ccc(O)cc2)CCc2ccc([N+](=O)[O-])cc21`: the TGI with SN12C renal, in the test on MOLT-4 leukemia, in the test on SF-539 CNS, in the test on OVCAR-3 ovarian, in the test on MDA-MB-231 breast and in the test with MALME-3M melanoma was over 100 µM each time. In addition, the TGI was over 100 µM in the test with OVCAR-5 ovarian; over 100 µM in the test on OVCAR-8 ovarian; over 100 µM in the test with HOP-62 NSCLC; over 89.6 µM with HOP-92 NSCLC; over 100 µM with T-47D breast; over 100 µM in the test on M14 melanoma. The TGI was over 100 µM in the test with PC-3 prostate; over 100 µM in the test on MDA-N; over 100 µM in the test on A498 renal; over 100 µM with 786-0 renal; over 30.8 µM with NCI-H522 lung; over 81.6 µM with UO-31 renal. This molecule displayed a TGI with K-562 leukemia of over 100 µM.

As to `CC(C)CCNC(=O)C(CC(C)C)NC(=O)[C@H]1O[C@@H]1C(=O)O` (some centres not stated), the TGI with SN12C renal, in the test on MOLT-4 leukemia, in the test on SF-539 CNS, with OVCAR-3 ovarian, with MDA-MB-231 breast and with MALME-3M melanoma was over 100 µM throughout. The TGI with OVCAR-5 ovarian, in the test on OVCAR-8 ovarian, with HOP-62 NSCLC, in the test on HOP-92 NSCLC, in the test on T-47D breast and in the test on M14 melanoma was over 100 µM throughout. For the same molecule, the TGI in the test on PC-3 prostate, in the test with MDA-N, in the test with A498 renal, in the test on 786-0 renal, in the test with NCI-H522 lung and in the test with UO-31 renal was over 100 µM in each case. This molecule yielded a TGI in the test on K-562 leukemia of over 100 µM.

Regarding `O=C1CSC(c2ccccc2)N1c1ccc(-n2c(-c3ccccc3)nc3ccccc3c2=O)cc1` (configuration not stated), the TGI in the test with SN12C renal, in the test on MOLT-4 leukemia, with SF-539 CNS, with OVCAR-3 ovarian, with MDA-MB-231 breast and with MALME-3M melanoma was over 100 µM each time. Further, the TGI with OVCAR-5 ovarian, in the test on OVCAR-8 ovarian, in the test on HOP-62 NSCLC, with HOP-92 NSCLC, in the test with T-47D breast and in the test with M14 melanoma was over 100 µM in each case. Moreover, the TGI in the test with PC-3 prostate, in the test with MDA-N, with A498 renal, in the test with 786-0 renal, in the test on NCI-H522 lung and in the test with UO-31 renal was over 100 µM each time. Besides, the TGI in the test on K-562 leukemia was over 100 µM.

`C=C1[C@H](OCC(C)C)[C@@H](O)[C@@H](OC(=O)c2cccnc2)C(C)(C)/C=C/[C@H](C)[C@H](OC(C)=O)[C@@]2(O)C[C@@](C)(OC(C)=O)[C@H](OC(=O)c3ccccc3)[C@@H]2[C@H]1OC(C)=O`: the TGI with SN12C renal is over 5 µM; with MOLT-4 leukemia, over 2.79 µM; in the test with SF-539 CNS, 1.58 µM; in the test on OVCAR-3 ovarian, over 3.67 µM; in the test with MDA-MB-231 breast, over 5 µM; in the test with MALME-3M melanoma, 1.46 µM. The TGI in the test with OVCAR-5 ovarian was over 5 µM; in the test with OVCAR-8 ovarian, over 3.28 µM; in the test with HOP-62 NSCLC, 2.26 µM; in the test with HOP-92 NSCLC it was over 5 µM; with T-47D breast, over 5 µM; with M14 melanoma, over 4.49 µM. The TGI in the test with PC-3 prostate was over 5 µM; in the test on MDA-N, over 5 µM; with A498 renal, 2.79 µM; with 786-0 renal, over 5 µM; with NCI-H522 lung, 2.54 µM; in the test with UO-31 renal, over 1.24 µM. In the test with K-562 leukemia, this molecule came in with a TGI of over 3.36 µM.
